Measurements taken from the supplement of paper PMC10307832.

How the values were obtained:
Assay in all cases: relative viability (nuclei count vs DMSO), 5 days (fraction); higher = more cells survive
Fedratinib + Pemetrexed = compound: Cc1cnc(Nc2ccc(OCCN3CCCC3)cc2)nc1Nc1cccc(S(=O)(=O)NC(C)(C)C)c1 [Fedratinib] + Nc1nc2[nH]cc(CCc3ccc(C(=O)N[C@@H](CCC(=O)O)C(=O)O)cc3)c2c(=O)[nH]1 [Pemetrexed] (partner 0.2 µM)
Method in brief: (§1)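 After 5 days of treatment, lung cancer cells in 1536-well plates were fixed and stained in a single step (final 0.05% Triton X-100, 1% formaldehyde, 1 ug/ml Hoechst) and their nuclei counted on 4× images. Treatment had been applied by pin tool the day after seeding as one drug alone or as a fixed anchor-drug dose with five library-drug doses (not always all listed) in √10 steps. Relative viability is the nuclei count of treated wells divided by that of vehicle wells, and values are medians of duplicate plates.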

GW-2580 + Phenformin = compound: COC1=CC=C(C=C1)COC2=C(C=C(C=C2)CC3=CN=C(N=C3N)N)OC [GW-2580] + N=C(N)NC(=N)NCCc1ccccc1 [Phenformin] (partner 250 µM)
Method in brief: as §1

GW-2580 + OSI-027 = compound: COC1=CC=C(C=C1)COC2=C(C=C(C=C2)CC3=CN=C(N=C3N)N)OC [GW-2580] + COc1cccc2cc(-c3nc([C@H]4CC[C@H](C(=O)O)CC4)n4ncnc(N)c34)[nH]c12 [OSI-027] (partner 0.5 µM)
Method in brief: as §1

GW-2580 + Tozasertib = compound: COC1=CC=C(C=C1)COC2=C(C=C(C=C2)CC3=CN=C(N=C3N)N)OC [GW-2580] + Cc1cc(Nc2cc(N3CCN(C)CC3)nc(Sc3ccc(NC(=O)C4CC4)cc3)n2)n[nH]1 [Tozasertib] (partner 0.1 µM)
Method in brief: as §1

GW-2580 + Linsitinib = compound: COC1=CC=C(C=C1)COC2=C(C=C(C=C2)CC3=CN=C(N=C3N)N)OC [GW-2580] + C[C@]1(O)C[C@@H](c2nc(-c3ccc4ccc(-c5ccccc5)nc4c3)c3c(N)nccn32)C1 [Linsitinib] (partner 1 µM)
Method in brief: as §1

| Cell Line | relative viability (Fedratinib + Pemetrexed; first compound 0.1 µM) | relative viability (Fedratinib + Pemetrexed; first compound 0.3162 µM) | relative viability (Fedratinib + Pemetrexed; first compound 1 µM) | relative viability (GW-2580 + Phenformin; first compound 0.08 µM) | relative viability (GW-2580 + Phenformin; first compound 0.8 µM) | relative viability (GW-2580 + Phenformin; first compound 2.53 µM) | relative viability (GW-2580 + Phenformin; first compound 8 µM) | relative viability (GW-2580 + OSI-027; first compound 0.08 µM) | relative viability (GW-2580 + OSI-027; first compound 0.8 µM) | relative viability (GW-2580 + OSI-027; first compound 2.53 µM) | relative viability (GW-2580 + OSI-027; first compound 8 µM) | relative viability (GW-2580 + Tozasertib; first compound 0.08 µM) | relative viability (GW-2580 + Tozasertib; first compound 0.8 µM) | relative viability (GW-2580 + Tozasertib; first compound 2.53 µM) | relative viability (GW-2580 + Tozasertib; first compound 8 µM) | relative viability (GW-2580 + Linsitinib; first compound 0.08 µM) | relative viability (GW-2580 + Linsitinib; first compound 0.8 µM) | relative viability (GW-2580 + Linsitinib; first compound 2.53 µM) | relative viability (GW-2580 + Linsitinib; first compound 8 µM) |
| --- | --- | --- | --- | --- | --- | --- | --- | --- | --- | --- | --- | --- | --- | --- | --- | --- | --- | --- | --- |
| LU99A | 0.181 | 0.174 | 0.197 | 0.773 | 0.823 | 0.647 | 0.808 | 0.294 | 0.263 | 0.306 | 0.34 | 0.27 | 0.294 | 0.23 | 0.235 | 0.749 | 0.57 | 0.427 | 0.517 |
| NCI-H1355 | 1.08 | 1.05 | 1.06 | 0.426 | 0.496 | 0.347 | 0.397 | 0.378 | 0.466 | 0.37 | 0.35 | 0.532 | 0.494 | 0.396 | 0.477 | 0.823 | 0.884 | 0.694 | 0.809 |
| HCC-78 | 0.963 | 0.838 | 0.881 | 0.743 | 0.655 | 0.543 | 0.583 | 0.362 | 0.434 | 0.337 | 0.337 | 0.253 | 0.357 | 0.401 | 0.314 | 0.541 | 0.574 | 0.371 | 0.486 |
| NCI-H1563 | 0.737 | 0.624 | 0.824 | 0.69 | 0.679 | 0.647 | 0.637 | 0.827 | 0.803 | 0.737 | 0.707 | – | – | – | – | 1.19 | 1.27 | 1.1 | 1.08 |
